# Like-named read-outs stand apart in the source and are kept apart here.
# What was measured:
# [1] = system: immobilization induced osteoporosis (femur bone area); experiment: Effect on immobilization induced osteoporosis (sciatic nerve section) in rats; type: in vivo, Sprague-Dawley rat; details: for Immobilized leg, femur total bone area: mean (SE), control 5.3 (0.6); for Femoral bone area in the immobilized leg / bone loss prevention (in words): sciatic nerve section
# Method: Male Sprague-Dawley rats weighing 200±25 g were randomized by weight into groups and anesthetized with Hypnorm/Mebunat and Temgesic. A dorsolateral incision was made on the right or left hip through which the sciatic nerve was exposed, and a 0.5 cm section excised. The muscle and skin were sutured and the animal returned to its cage. The contralateral leg was left intact. The compound I dissolved in physiological saline was administered by subcutaneous injection daily at different dose levels from two days before the surgery until the day of 20 postneurectomy. Control animals received physiological saline. Animals double-labeled with fluorochrome at standardized time points were sacrificed at 21 days postneurectomy and their femora were removed. Femora were embedded in methylmetacrylate, sectioned, and stained. The metphyseal secondary spongiosa and the diaphyseal cortical bone of the femora were subjected to histomorphometric analysis. In control rats, femural total bone area decreased in the immobilized leg.
# [2] = system: spontaneous bone resorption; experiment: Effect on spontaneous bone resorption assessed by urinary tetracycline excretion from prelabeled rats; type: in vivo, Sprague-Dawley rat; details: for Inhibition of tetracycline excretion: n=5, mean (SE); for Inhibition of excretion of radiolabeled tetracycline / spontaneous bone resorption (in words): rats, s.c.
# Method: Male Sprague-Dawley rats were used. From the first week of life, the rats were injected subcutaneously with a solution containing 10 μCi/ml of (7-^3 H(N))tetracycline dissolved in physiological saline. The injections were performed twice weekly for 6 weeks. Every animal received a total amount of 20 μCi radiolabeled tetracycline. All animals were given normal diet for growing animals and water ad libitum. One week after the last injection of radiolabeled tetracycline, the rats were weighed and feeding with diet for adult animals was started. At fifth day the rats were randomized into groups and housed in individual metabolic cages. 24-h urine collections were performed for ten days. From the second day [(2-pyridinylamino)methylidene]bisphosphonic acid tetraethylester, compound I, dissolved in physiological saline was injected subcutaneously at different dose levels daily for six days. Control animals received physiological saline. Urine volume was measured and the radioactivity in urine samples was determined by liquid scintillation counting. The data was calculated as the ratio of treated/control at each day for the determination of maximal inhibition of tetracycline excretion.
# Excretion of unmetabolized tetracycline into urine reflects its removal from bone during resorptive processes and thus enables the continual monitoring of bone resorption.
# [3] = Binding to bone mineral (hydroxyapatite crystals, 14C-clodronate); details: for Binding to bone mineral: two hours; for Binding to hydroxyapatite (in words): up to 500 μM, physiological pH, in vitro
# Method: (§1) Newborn mice were labeled by a subcutaneous injection of ^45 Ca four days prior to sacrifice. Calvarial bone fragments were microdissected from the parietal bones, preincubated in culture medium with indomethacin, washed and then cultured for three days with and without the compound I. Bone resorption was stimulated by parathyroid hormone (PTH, 10 nM) and an inhibitory effect on this stimulated resorption was measured. […] For the determination of the binding of compound I to bone mineral, ^14 C-disodium clodronte tetrahydrate and hydroxyapatite crystals were incubated at room temperature in barbituric acid buffer at physiological pH in the absence and presence of the compound I in various concentrations. After two hours incubation, the mixture was centrifuged, and the percent of the total specifically bound radioactivity was measured from the supernatant. No binding of the compound I to hydroxyapatite was found at up to 500 μM concentration (Table 3).
# [4] = system: PTH-stimulated bone resorption, mice calvaria; experiment: Inhibition of PTH-stimulated resorption of calvarial bone in vitro; type: cell-based, mouse; details: for Inhibition of bone resorption in vitro, mice calvaria (in words): except at very high, unphysiological concentrations, calcium release
# Method: as §1
# [5] = Pharmacokinetics: serum AUC and bioavailability from serum concentration data; type: in vivo; details: rat; for AUC(0-inf): single dose 114 mg/kg, read-out: AUC0->.infin.
# Method: (§2) Pharmacokinetics of the compound [(2-pyridinylamino)methylidene]bisphosphonic acid tetraethylester was studied in rats. Minor amounts of an intravenous dose was excreted as a parent compound during 24 hours into urine supporting extensive metabolism as well. About half of the oral dose of the said compound was absorbed in rats.
# (§3) Bioavailability was determined from the total amount of compound excreted into urine during 24 hours or from the serum concentration data at different time points after oral administration and intravenous administration. The urine and serum samples were analyzed for the test compound I with high pressure liquid chromatographic methods. […] Bioavailability of compound I assessed by serum concentration data was 44%.
# [6] = Pharmacokinetics: urinary excretion of parent compound and bioavailability from urine; type: in vivo, rat; details: for Urinary excretion 0-24 h as parent compound / dose excreted at 24 h: single dose 114 mg/kg; for Urinary excretion 0-24 h as parent compound: 1440 min; for dose excreted at 24 h: urine, read-out: Urinary excretion 0-24 h as parent compound
# Method: as §2, §3
# [7] = listed as [(2-pyridinylamino)methylidene]bisphosphonic acid tetraethylester
smiles,measurement,setting,value
"CCOP(=O)(OCC)C(Nc1ccccn1)P(=O)(OCC)OCC [I, [(2-pyridinylamino)methylidene]bisphosphonic acid tetraethylester]","Immobilized leg, femur total bone area","[1]; 1 mg/kg s.c. daily, n=4",6.0 (1.3) %
same,"Immobilized leg, femur total bone area","[1]; 75 mg/kg s.c. daily, n=5",24.5 (2.5) %
same,"Immobilized leg, femur total bone area","[1]; 200 mg/kg s.c. daily, n=7",35.5 (1.7) %
same,"Immobilized leg, femur total bone area","[1]; 37,5 mg/kg s.c. daily, n=5",17.3 (2.0) %
same,Mineral apposition rate of cortical bone,"[1]; rats, s.c., data not presented",No deleterious effects
same,Femoral bone area in the immobilized leg / bone loss prevention (in words),"[1]; rats, s.c., listed as [(2-pyridinylamino)methylidene]bisphosphonic acid tetraethylester",effective in preventing bone loss
same,Femoral bone area in the immobilized leg / bone loss prevention (in words),"[1]; rats, s.c., listed as compound I",increased dose-dependently femoral bone area in the immobilized leg
same,Inhibition of tetracycline excretion,[2]; 1 mg/kg s.c. daily for six days,12.2 (6.4) %
same,Inhibition of tetracycline excretion,[2]; 10 mg/kg s.c. daily for six days,19.8 (5.9) %
same,Inhibition of tetracycline excretion,[2]; 100 mg/kg s.c. daily for six days,50.0 (6.1) %
same,Inhibition of tetracycline excretion,[2]; 200 mg/kg s.c. daily for six days,72.9 (2.6) %
same,Inhibition of excretion of radiolabeled tetracycline / spontaneous bone resorption (in words),[2]; [7],decreased spontaneous bone resorption
same,Inhibition of excretion of radiolabeled tetracycline / spontaneous bone resorption (in words),[2]; listed as compound I,dose-dependently inhibited
same,Binding to bone mineral,[3]; 5 μmol/l,No binding
same,Binding to bone mineral,[3]; 100 μmol/l,No binding
same,Binding to bone mineral,[3]; 200 μmol/l,No binding
same,Binding to bone mineral,[3]; 500 μmol/l,No binding
same,Binding to hydroxyapatite (in words),[3]; [7],did not show either any binding on hydroxyapatite crystals in vitro
same,Binding to hydroxyapatite (in words),[3]; listed as compound I,No binding
same,"Inhibition of PTH-stimulated resorption, 100 (PTH - x)/PTH","[4]; 1 μmol/l, PTH 10 nM, three days culture",No inhibiton
same,"Inhibition of PTH-stimulated resorption, 100 (PTH - x)/PTH","[4]; 10 μmol/l, PTH 10 nM, three days culture",No inhibition
same,"Inhibition of PTH-stimulated resorption, 100 (PTH - x)/PTH","[4]; 100 μmol/l, PTH 10 nM, three days culture",No inhibition
same,inhibition at 1000 µM,"[4]; Mus musculus, 72 h, 1000 μmol/l, PTH 10 nM, three days culture, (SE), read-out: Inhibition of PTH-stimulated resorption, 100 (PTH - x)/PTH",12.9%
same,"Inhibition of bone resorption in vitro, mice calvaria (in words)",[4],"no inhibition of resorption in vitro was shown except at very high, unphysiological concentrations"
same,"Inhibition of bone resorption in vitro, mice calvaria (in words)",[4]; [7],No effect
same,AUC(0-inf),[5]; iv,139000 ng·h/mL
same,bioavailability,"[5]; po, p.o. vs i.v., 114 mg/kg, read-out: Bioavailability F from serum concentration data (AUC)",44%
same,AUC(0-inf),[5]; po,60700 ng·h/mL
same,Urinary excretion 0-24 h as parent compound,"[6]; i.v., 114 mg/kg",13.6 % of dose
same,Urinary excretion as a parent compound during 24 hours (in words),"[6]; intravenous dose, rats",Minor amounts
same,Absorption of the oral dose (in words),"[6]; oral, rats",About half
same,Urinary excretion 0-24 h as parent compound,"[6]; p.o., 114 mg/kg",7.8 % of dose
same,bioavailability at 24 h,"[6]; rat, po, p.o. vs i.v., 114 mg/kg, urine 0-24 h, read-out: Bioavailability F from urinary excretion",58%
same,dose excreted at 24 h,"[6]; rat, iv, 114 mg/kg, i.v.",14%
same,dose excreted at 24 h,"[6]; rat, po, 114 mg/kg, p.o.",< 10%
